These results are taken from US20260069656A1, “Nutritive Polypeptides and Formulations Thereof, and Methods of Production and Use Thereof” (Axcella Health Inc., priority 2013, published 2026).

The test system of one series is Zucker fatty rats. In words: OGTT in Zucker fatty rats, SEQID-00105 vs alogliptin vs combination (glucose 2 g/kg). Format: in vivo, rat. As to the method: In another experiment, an OGTT was performed in 24, fasted, male Zucker fatty rats with indwelling jugular vein catheters (JVC) to assess the acute effects of nutritive protein dosing on glycemic control as well as insulin and GLP-1 levels. The capacity of SEQID-00105 to improve glucose control was tested by comparing the blood glucose excursion of SEQID-00105 to alogliptin to SEQID-00105+alogliptin to vehicle in the context of an oral glucose tolerance test. All rodents were approximately 10-11 weeks old, weighed average of approximately 430 g and acclimated for 4-5 days prior to testing. Prior to treatment, all rats were fasted overnight for fourteen hours. […] N=6 rats per treatment group. The error bars shown are the standard errors of the mean. Each group was compared post hoc on GraphPad Prism 6, two-way ANOVA, Dunnett's multiple comparisons test first comparing within each group to the fasting glucose concentration, followed by a comparison of each time point to vehicle. […] The integrated area under curve (AUC) was calculated on Microsoft Excel using the Linear-Log Trapezoidal Method and two-way ANOVA and Dunnett's multiple comparisons tests was conducted on GraphPad Prism 6.03.

A further series has as its system healthy subjects. Particulars: oral supplementation vs. control; cited from earlier work.
In a further series the test system is burn injury. Conditions: 0.35 g/kg, cited from earlier work.
A further series relates to 5-HT production. Particulars: oral intake of free Tryptophan; cited from earlier work.
The subject of series [1] is mTORC1 (phosphorylation of ribosomal protein S6, rps6). In words: AlphaScreen SureFire Ribosomal Protein S6 assay in primary rat skeletal muscle cells. Format: cell-based.
Excerpt: Primary Rat Skeletal Muscle Cell (RSKMC) culture medium was purchased from Cell Applications (Catalog number: R150-500, San Diego, CA). Starvation medium DMEM/F12 was bought from Sigma (Catalog number: D9785, St. Louis, MO). […] Fetal bovine serum (FBS) and other growth factors were obtained from Cell Applications (Catalog number: R151-GS, San Diego, CA). Tissue culture flasks and clear bottom 96-well tissue culture plates were purchased from Corning Incorporated (Catalog number: 430641 and 353072, respectively, Corning, NY). Trypsin/EDTA was obtained from Life Technology (Catalog number: 25200, Grand Island, NY). DPBS and HBSS were also purchased from Life Technologies (Catalog number: 14190, 14175, respectively). AlphaScreen® SureFire® Ribosomal Protein S6 Assay Kits was obtained from Perkin Elmer (Catalog number: TGRS6P2S10K).
Primary Rat Skeletal Muscle Cell (RSKMC) culture. RSKMC were isolated using protocol described herein and cryopreserved in liquid nitrogen. The cells were also maintained in RSKMC medium (Cell Applications) in T75 tissue flask in a 37° C., 5% CO2 tissue culture incubator (Model 3110, Thermo Fisher Scientific). The cells were split every three day when they reached ˜90% confluency. RSKMC cells were cultured in RSKMC medium in T75 tissue flask to 100% confluency. The culture medium was aspirated from the culture flask and rinsed once with 10 ml of DPBS, and then 1.5 ml of 0.25% trypsin/EDTA was added to the cells. After the cells were detached from the flask, 10 ml of culture medium were added. The medium was pipetted up and down with a 10 ml pipet to detach the cells from the flask. The cells were then seeded into clear bottom 96-well tissue culture plates at a density of 50,000 cells per well. Following overnight culture in a 37° C., 5% CO2 incubator, the cells were starved over a period of 4 hours with starvation DME/F12 medium without FBS and leucine in a 37° C., 5% CO2 tissue culture incubator, then starved for another hour incubation with Hank's Buffered Salt Solution (HBSS). […]
Series [2] is described as follows: Intact half-life during simulated gastric fluid (SGF) digestion. Particulars: SGF pH 1.5, pepsin:polypeptide 1:20 w/w, 37° C.; produced in E. coli unless otherwise noted.
A short description of series [3]: Thermostability, ProteoStat Thermal Shift Stability Kit, temperature of aggregation. The format is physicochemical. Particulars: pH 7.1; heated from 25° C. to 95° C. As to the method: Thermostability. The thermostability of proteins in a buffer cocktail of Citric Acid and Dibasic Sodium Phosphate over a pH range of 2.8 to 7.1 (preparation described above in Table E31B) was determined using the ProteoStat® Thermal Shift Stability Kit (Enzo Life Sciences) according to the manufacturer's standard protocol. Briefly, protein solutions (˜10 mg/ml) containing 1× ProteoStat TS Detection Reagent were heated from 25° C. to 95° C. at a rate of 0.5° C. per 30 sec using a real-time PCR (rtPCR) thermocycler (BioRad) equipped with a plate reader (SynergyMx, Biotek) while monitoring the fluorescence with a Texas Red filter.

Take `Cn1c(=O)cc(N2CCC[C@@H](N)C2)n(Cc2ccccc2C#N)c1=O` [Alogliptin]: the “glucose AUC vs vehicle” value in the series with Zucker fatty rats (0 to 120 minutes, P=0.0051) was “significantly less than vehicle”; in the series on Zucker fatty rats (0 to 240 minutes, P=0.0054), “significantly less than vehicle”. Besides, the “blood glucose vs vehicle” value in the series with Zucker fatty rats (30 minutes following glucose challenge) is recorded as “significantly lower blood glucose than vehicle”; in the series on Zucker fatty rats (60 minutes following glucose challenge), “significantly lower than vehicle”.
In the case of `N=C(N)NCCC[C@H](N)C(=O)O` [Arginine], in the series with healthy subjects, the “increase in collagen deposition at wound sites” value is listed as 2.4 ×.
Take `NC(=O)CC[C@H](N)C(=O)O` [Glutamine]: the “decrease in Lactulose/mannitol ratio” value in the series with burn injury (after 3 days, vs 5.5× decrease) was 8.8 ×. Moreover, in the series with burn injury, the “reduction in hospital stay” value was 6 days.
As for `N[C@@H](Cc1c[nH]c2ccccc12)C(=O)O` [Tryptophan], the “increase of 5-HT production” value with 5-HT production was 2 fold.
As for `CC(C)C[C@H](N)C(=O)O` [leucine], the “phosphorylation of rps6” value in series [1] (primary RSkMC, complete amino acid medium and minimal 12 amino acid mixture) is given as “stimulates phosphorylation of rps6 in primary RSkMC in a dose-dependent manner”. For the same molecule, in series [1] (primary RSkMC, different Leucine concentrations), the “phosphorylation of rps6 (relative alphascreen signal)” value was “stimulates phorphorylation of rps6 in primary RSkMC in a dose-dependent manner”. Besides, the “mTOR RPS6 pathway stimulation” value in series [1] (primary cells from Soleus, gastrocnemius and extensor digitorum longus) is given as “stimulates mTOR RPS6 pathway using isolated primary cells in a dose dependent manner”.
On to “SEQID-00143: nutritive polypeptide (LYLEEVSKNLVEINPLKLEVKAKPWFVYTPMHGVGFDIFSTIVKKTLCLVEGK; listed as Saccharomyces cerevisiae)”, for which, in series [2], the “SGF Half-life (t½)” value was 18 s.
On the same count and under the same terms, the value for “SEQID-00212: nutritive polypeptide (LEEAKKKLLKDVEVLSQRLEEKALAYDKLEKTKTRLQQELDDLLVDLDHQ; listed as Bos taurus)” was 18 s; that for “SEQID-00215: nutritive polypeptide (KKLLKDVEVLSQRLEEKALAYDKLEKTKTRLQQELDDLLVDLDHQRQIVSNLEKK; listed as Bos taurus)” was 120 s; that for “SEQID-00218: nutritive polypeptide (GTIENLEEAKKKLLKDVEVLSQRLEEKALAYDKLEKTKTRLQQELDDLLVDLDHQ; listed as Bos taurus)” was 360 s.
Consider “SEQID-00237: nutritive polypeptide (EEDKVNTLTKAKTKLEQQVDDLEGSLEQEKKLRMDLERAKRKLEGDLKLA; listed as Bos taurus)”, for which the “Tagg (pH 7.1)” value in series [3] amounted to 45. Also, the “SGF Half-life (t½)” value in series [2] is 36 s.
